Source: patent publication US4049696A, “3-((4-(2,2-Dichloro-1,1-difluoroethoxy)phenyl)sulfonyl)-2-propenenitrile” (The Dow Chemical Company, priority 1977, dated 1977)
Values after ≈ are worked out from the molar mass of the structure shown.

Columns and labels:
Assay type in all cases: cell-based
S. marcescens NIH = experiment: in vitro agar Petri dish dilution test, S. marcescens NIH; conditions: Serratia marcescens, 100% growth inhibition
From the text: (§1) The compound has antimicrobial utility.

E. coli ATCC 11229 = experiment: in vitro agar Petri dish dilution test, E. coli ATCC 11229; conditions: Escherichia coli, ATCC11229, 100% growth inhibition
From the text: as §1

P. chrysogenum = experiment: in vitro agar Petri dish dilution test, P. chrysogenum; conditions: Penicillium chrysogenum, 100% growth inhibition
From the text: as §1

T. mentagrophytes = experiment: in vitro agar Petri dish dilution test, T. mentagrophytes; conditions: Trichophyton mentagrophytes, 100% growth inhibition
From the text: as §1

P. aeruginosa = experiment: in vitro agar Petri dish dilution test, P. aeruginosa; conditions: Pseudomonas aeruginosa, 100% growth inhibition
From the text: as §1

[1] = system: K. pneumoniae M-1 Midland Hospital; experiment: in vitro agar Petri dish dilution test, K. pneumoniae M-1 Midland Hospital; conditions: Klebsiella pneumoniae, 100% growth inhibition
From the text: as §1

B. subtilis = experiment: in vitro agar Petri dish dilution test, B. subtilis; conditions: Bacillus subtilis, 100% growth inhibition
From the text: as §1

P. pullulans = experiment: in vitro agar Petri dish dilution test, P. pullulans; conditions: 100% growth inhibition
From the text: as §1

C. albicans = experiment: in vitro agar Petri dish dilution test, C. albicans; conditions: Candida albicans, 100% growth inhibition
From the text: as §1

Torulopsis Species = experiment: in vitro agar Petri dish dilution test, Torulopsis Species; conditions: 100% growth inhibition
From the text: as §1

[2] = system: Trichoderm Sp. Madison P-42; experiment: in vitro agar Petri dish dilution test, Trichoderm Sp. Madison P-42; conditions: 100% growth inhibition
From the text: as §1

C. albicans NIH = experiment: in vitro agar Petri dish dilution test, C. albicans NIH; conditions: Candida albicans, 100% growth inhibition
From the text: as §1

A. niger = experiment: in vitro agar Petri dish dilution test, A. niger; conditions: Aspergillus niger, 100% growth inhibition
From the text: as §1

C. pelliculosa = experiment: in vitro agar Petri dish dilution test, C. pelliculosa; conditions: Hansenula anomala, 100% growth inhibition
From the text: as §1

A. fumigatus = experiment: in vitro agar Petri dish dilution test, A. fumigatus; conditions: Aspergillus fumigatus, 100% growth inhibition
From the text: as §1

S. aureus = experiment: in vitro agar Petri dish dilution test, S. aureus; conditions: Staphylococcus aureus, 100% growth inhibition
From the text: as §1

## N#CC=CS(=O)(=O)c1ccc(OC(F)(F)C(Cl)Cl)cc1 [3-((4-(2,2-Dichloro-1,1-difluoroethoxy)phenyl)sulfonyl)-2-propenenitrile]
S. marcescens NIH
  MIC: 50 µg/mL (≈ 146 µM)
E. coli ATCC 11229
  MIC: 50 µg/mL (≈ 146 µM)
P. chrysogenum
  MIC: 10 µg/mL (≈ 29.2 µM)
T. mentagrophytes
  MIC: 10 µg/mL (≈ 29.2 µM)
P. aeruginosa
  MIC: 100 µg/mL (≈ 292 µM)
[1]
  MIC: 100 µg/mL (≈ 292 µM)
B. subtilis
  MIC: 1 µg/mL (≈ 2.92 µM)
P. pullulans
  MIC: 50 µg/mL (≈ 146 µM)
C. albicans
  MIC: 50 µg/mL (≈ 146 µM)
Torulopsis Species
  MIC: 50 µg/mL (≈ 146 µM)
[2]
  MIC: 100 µg/mL (≈ 292 µM)
C. albicans NIH
  MIC: 50 µg/mL (≈ 146 µM)
A. niger
  MIC: 10 µg/mL (≈ 29.2 µM)
C. pelliculosa
  MIC: 10 µg/mL (≈ 29.2 µM)
A. fumigatus
  MIC: 50 µg/mL (≈ 146 µM)
S. aureus
  MIC: 5 µg/mL (≈ 14.6 µM)
